According to BindingDB's records for doi:10.1021/jm980621r (Ligand Pharmaceuticals, 1999):

Assays:
[1] = target: T1, Retinoic acid receptor RXR-beta (Homo sapiens, UniProt P28702); test: Binding affinity towards recombinantly expressed Retinoic acid receptor RXR-beta in baculoviral system, by using 5 nM [3H]targretin in a competitive binding assay
T1 sequence (P28702 whole entry): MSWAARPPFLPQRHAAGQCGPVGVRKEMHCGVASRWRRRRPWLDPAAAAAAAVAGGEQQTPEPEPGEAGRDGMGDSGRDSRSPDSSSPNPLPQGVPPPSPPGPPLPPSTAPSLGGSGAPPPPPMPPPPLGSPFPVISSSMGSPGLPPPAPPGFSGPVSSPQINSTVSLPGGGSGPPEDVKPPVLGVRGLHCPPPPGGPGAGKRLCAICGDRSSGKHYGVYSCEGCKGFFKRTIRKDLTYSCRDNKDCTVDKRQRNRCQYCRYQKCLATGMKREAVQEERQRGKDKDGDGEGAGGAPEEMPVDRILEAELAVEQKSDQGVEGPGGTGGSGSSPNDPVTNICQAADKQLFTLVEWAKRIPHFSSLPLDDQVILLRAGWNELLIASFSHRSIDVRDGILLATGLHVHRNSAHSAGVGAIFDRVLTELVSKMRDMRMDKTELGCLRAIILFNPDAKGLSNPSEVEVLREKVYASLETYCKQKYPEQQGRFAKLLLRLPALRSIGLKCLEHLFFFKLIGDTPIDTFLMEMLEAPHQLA

[2] = target: T2, Retinoic acid receptor RXR-alpha (Homo sapiens, UniProt P19793); test: Transcriptional activity was evaluated in CV-1 cells transfected with expression vector for Retinoic acid receptor RXR-alpha
T2 sequence (P19793 whole entry): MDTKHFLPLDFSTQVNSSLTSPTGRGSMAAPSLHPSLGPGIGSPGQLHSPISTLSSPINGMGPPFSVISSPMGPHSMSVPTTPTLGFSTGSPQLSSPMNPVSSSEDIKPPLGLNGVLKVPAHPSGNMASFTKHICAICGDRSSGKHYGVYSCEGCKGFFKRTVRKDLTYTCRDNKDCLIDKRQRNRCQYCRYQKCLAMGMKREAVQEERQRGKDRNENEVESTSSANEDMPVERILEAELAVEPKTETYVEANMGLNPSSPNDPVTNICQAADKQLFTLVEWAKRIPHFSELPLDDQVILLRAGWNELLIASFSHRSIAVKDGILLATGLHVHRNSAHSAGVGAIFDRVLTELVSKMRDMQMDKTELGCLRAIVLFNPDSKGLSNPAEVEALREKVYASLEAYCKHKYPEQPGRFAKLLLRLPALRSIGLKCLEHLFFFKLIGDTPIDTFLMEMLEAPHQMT

[3] = target: T1, Retinoic acid receptor RXR-beta; test: Transcriptional activity was evaluated in CV-1 cells transfected with expression vector for Retinoic acid receptor RXR-beta
[4] = target: T3, Retinoic acid receptor RXR-gamma (Homo sapiens, UniProt P48443); test: Transcriptional activity was evaluated in CV-1 cells transfected with expression vector for Retinoic acid receptor RXR-gamma
T3 sequence (P48443 whole entry): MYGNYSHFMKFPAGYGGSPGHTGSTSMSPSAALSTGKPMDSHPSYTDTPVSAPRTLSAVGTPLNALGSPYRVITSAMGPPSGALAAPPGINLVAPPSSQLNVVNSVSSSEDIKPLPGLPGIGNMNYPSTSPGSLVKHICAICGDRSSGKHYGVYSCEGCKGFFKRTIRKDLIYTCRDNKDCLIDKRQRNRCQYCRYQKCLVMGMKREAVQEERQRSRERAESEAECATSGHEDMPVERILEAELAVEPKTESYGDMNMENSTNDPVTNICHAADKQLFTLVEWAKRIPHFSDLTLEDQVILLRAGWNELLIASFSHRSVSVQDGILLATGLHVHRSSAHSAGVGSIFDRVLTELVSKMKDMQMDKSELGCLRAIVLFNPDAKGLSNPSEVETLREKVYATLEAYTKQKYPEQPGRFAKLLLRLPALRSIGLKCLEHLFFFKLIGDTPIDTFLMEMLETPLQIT

SMILES: CCO/N=C(/c1ccc(C(=O)O)cc1)c1cc2c(cc1C)C(C)(C)CCC2(C)C
- Ki [1]: 120 nM
- EC50 [2]: 46 nM
- EC50 [3]: 165 nM
- EC50 [4]: 34 nM
